Results: patent US4767749A, “Ester of (triarylphosphoranylidene)carbamic acid having diuretic and ability to lower plasma renin properties” (American Cyanamid Company, priority 1986, dated 1988)
Counter-ions that a name gives are not always drawn.

The compounds below were run on spontaneously hypertensive rats (SHR) (assay: Diuretic activity in spontaneously hypertensive rats). Conditions: 100 mg/kg by gavage with 0.9% sodium chloride loading 25 ml/kg; 0-5 hour urine.
Type: in vivo, male spontaneously hypertensive rats (Okamoto strain)
Experimental: The diuretic activity of the compounds of this invention was also determined according to the method of Chan, P. S. and Poorvin, D., Sequential method for combined screening antihypertensive and diuretic agents in the same spontaneously hypertensive rat. Clinical and Experimental Hypertension, 1(6), 817-830 (1979).
Male spontaneously hypertensive rats (SHR) of Okamoto strain, 16 weeks old, Taconic Farms Inc. were used in the test. These rats were kept on Purina laboratory chow and tap water ad libitum for 8 weeks before use. One male adult rat (about 300 g) was dosed by gavage with a test compound at 100 mg/kg together with 0.9% sodium chloride loading at 25 ml/kg at zero hour. The test compound was suspended in 3% preboiled starch at 50 mg/ml. The rat was put in a metabolism cage. The 0-5 hour urine was collected and urinary sodium and potassium were determined using a Beckman Astra 4. The effects of representative compounds of the invention according to this test appear in Table III expressed in milliequivalents (mEQ) of urinary sodium and potassium excreted.

Row | Structure (SMILES) | Potassium (urinary excretion) [mEQ/5 Hours] | Sodium (urinary excretion) [mEQ/5 Hours] | Volume (urine) [mL]
1 | CCO[C@@H]1CCC[C@H]1OC(=O)N=P(c1ccccc1)(c1ccccc1)c1ccccc1 (relative stereo) [(triphenylphosphoranylidene)carbamic acid, trans-2-ethoxycyclopentyl ester] | 0.73 | 1.38 | 13.3
2 | CO[C@@H]1CCCC[C@H]1OC(=O)N=P(c1ccccc1)(c1ccccc1)c1ccccc1 (relative stereo) [(triphenylphosphoranylidene)carbamic acid, trans-2-methoxycyclohexyl ester] | 0.67 | 1.45 | 12.8
3 | CO[C@@H]1CCC[C@H]1OC(=O)N=P(c1ccccc1)(c1ccccc1)c1ccccc1 (relative stereo) [(triphenylphosphoranylidene)carbamic acid, trans-2-methoxycyclopentyl ester] | 0.72 | 1.83 | 17.0
4 | C[C@@H]1CCC[C@H]1OC(=O)N=P(c1ccccc1)(c1ccccc1)c1ccccc1 (relative stereo) [(triphenylphosphoranylidene)carbamic acid, trans-2-methylcyclopentyl ester] | 0.68 | 1.55 | 14.3
5 | Cc1ccccc1P(=N)(c1ccccc1)c1ccccc1 [(2-Methylphenyl)diphenylphosphinimide sulfate] | 0.68 | 1.88 | 16.3
6 | CC1(OC(=O)N=P(c2ccccc2)(c2ccccc2)c2ccccc2)CCCC1 [(Triphenylphosphoranylidene)carbamic acid, 1-methylcyclopentyl ester] | 0.86 | 1.49 | 14.8
7 | O=C(N=P(c1ccccc1)(c1ccccc1)c1ccccc1)OC1CCc2ccccc21 (stereo not drawn) [(Triphenylphosphoranylidene)carbamic acid, 2,3-dihydro-1 --H--inden-1-yl ester] | 0.87 | 1.41 | 13.0
8 | O=C(N=P(c1ccccc1)(c1ccccc1)c1ccccc1)OCC1CCC1 [(Triphenylphosphoranylidene)carbamic acid, cyclobutylmethyl ester] | 0.60 | 1.47 | 14.5
9 | O=C(N=P(c1ccccc1)(c1ccccc1)c1ccccc1)OCC1CC1 [(Triphenylphosphoranylidene)carbamic acid, cyclopropylmethyl ester] | 0.57 | 2.00 | 19.5
10 | CC(OC(=O)N=P(c1ccccc1)(c1ccccc1)c1ccccc1)C1CC1 (stereo not drawn) [(triphenylphosphoranylidene)carbamic acid, 1-cyclopropylethyl ester] | 0.65 | 1.19 | 12.0
11 | CCC1(OC(=O)N=P(c2ccccc2)(c2ccccc2)c2ccccc2)CCCC1 [(triphenylphosphoranylidene)carbamic acid, 1-ethylcyclopentyl ester] | 1.01 | 1.34 | 12.5
12 | CCCC1(OC(=O)N=P(c2ccccc2)(c2ccccc2)c2ccccc2)CCCC1 [(triphenylphosphoranylidene)carbamic acid, 1-propylcyclopentyl ester] | 0.63 | 1.14 | 10.3
13 | CC#CCOC(=O)N=P(c1ccccc1)(c1ccccc1)c1ccccc1 [(triphenylphosphoranylidene)carbamic acid, 2-butynyl ester] | 0.57 | 1.15 | 10.0
14 | O=C(N=P(c1ccccc1)(c1ccccc1)c1ccccc1)OC1C=CCC1 (stereo not drawn) [(triphenylphosphoranylidene)carbamic acid, 2-cyclopenten-1-yl ester] | 0.83 | 1.58 | 15.5
15 | C#CCOC(=O)N=P(c1ccccc1)(c1ccccc1)c1ccccc1 [(triphenylphosphoranylidene)carbamic acid, 2-propynyl ester] | 0.58 | 1.76 | 15.5
16 | CC(=O)CCCOC(=O)N=P(c1ccccc1)(c1ccccc1)c1ccccc1 [(triphenylphosphoranylidene)carbamic acid, 4-oxo-pentan-1-yl ester] | 0.58 | 1.16 | 13.3

Row | Structure (SMILES) | Potassium (urinary excretion) [mEQ/5 Hours] | Sodium (urinary excretion) [mEQ/5 Hours] | Volume (urine) [mL]
17 | O=C(N=P(c1ccccc1)(c1ccccc1)c1ccccc1)OCc1ccncc1 [(triphenylphosphoranylidene)carbamic acid, 4-pyridinylmethyl ester] | 0.70 | 1.50 | 16.5
18 | CC1CC1COC(=O)N=P(c1ccccc1)(c1ccccc1)c1ccccc1 (stereo not drawn) [(triphenylphosphoranylidene)carbamic acid, (2-methylcyclopropyl)methyl ester] | 0.47 | 1.28 | 11.3
19 | COC1CCCCC1OC(=O)N=P(c1ccccc1)(c1ccccc1)c1ccccc1 (stereo not drawn) [(triphenylphosphoranylidene)carbamic acid, cis- and trans-2-methoxycyclohexyl ester] | 0.59 | 1.15 | 11.3
20 | O=C(N=P(c1ccccc1)(c1ccccc1)c1ccccc1)OC1CCCC1 [(triphenylphosphoranylidene)carbamic acid, cyclopentyl ester] | 0.80 | 1.48 | 14.0
21 | O=C(N=P(c1ccccc1)(c1ccccc1)c1ccccc1)OC(C1CC1)C1CC1 [(triphenylphosphoranylidene)carbamic acid, dicyclopropylmethyl ester] | 1.07 | 1.58 | 14.3
22 | O=C(N=P(c1ccccc1)(c1ccccc1)c1ccccc1)OC1CCOCC1 [(triphenylphosphoranylidene)carbamic acid, tetrahydro-2 --H--pyran-4-yl ester] | 0.64 | 1.60 | 15.3
23 | N=P(c1ccccc1)(c1ccccc1)c1ccccc1 [Triphenylphosphinimide sulfate] | 0.65 | 1.25 | 12.0
24 | CCOC(=O)N=P(c1ccccc1)(c1ccccc1)c1cccc(Cl)c1Cl [[(2,3-dichlorophenyl)diphenylphosphoranylidene]carbamic acid ethyl ester] | 0.86 | 1.83 | 14.3
25 | CCOC(=O)N=P(c1ccccc1)(c1ccccc1)c1ccccc1OC [[(2-Methoxyphenyl)diphenylphosphoranylidene]carbamic acid, ethyl ester] | 0.97 | 1.31 | 11.3
26 | CCOC(=O)N=P(c1ccccc1)(c1ccccc1)c1ccccc1Br [[(2-bromophenyl)diphenylphosphoranylidene]carbamic acid, ethyl ester] | 0.68 | 2.51 | 22.5
27 | O=C(N=P(c1ccccc1)(c1ccccc1)c1ccccc1Cl)OC1CCOC1 (stereo not drawn) [[(2-chlorophenyl)diphenylphosphoranylidene]carbamic acid, tetrahydro-3-furanyl ester] | 0.68 | 1.90 | 20.0
28 | CCOC(=O)N=P(c1ccccc1)(c1ccccc1)c1ccccc1CC [[(2-ethylphenyl)diphenylphosphoranylidene]carbamic acid, ethyl ester] | 0.78 | 2.07 | 19.0
29 | CCc1ccccc1P(=NC(=O)OC)(c1ccccc1)c1ccccc1 [[(2-ethylphenyl)diphenylphosphoranylidene]carbamic acid, methyl ester] | 0.58 | 1.36 | 14.3
30 | Cc1ccccc1P(=NC(=O)OC1CCCC1)(c1ccccc1)c1ccccc1 [[(2-methylphenyl)diphenylphosphoranylidene]carbamic acid, cyclopentyl ester] | 0.67 | 1.18 | 10.8
31 | COC(=O)N=P(c1ccccc1)(c1ccccc1)c1ccccc1C [[(2-methylphenyl)diphenylphosphoranylidene]carbamic acid, methyl ester] | 0.88 | 1.95 | 18.3
